Results on 21 compounds are retold here after patent US10253015B2, “Pyridinyl quinolinone derivatives as mutant-isocitrate dehydrogenase inhibitors” (FORMA TM2, Inc., priority 2014, dated 2019).

A word on the IC50: it is the concentration needed to halve the response being measured.

Each structure is given as a SMILES string. Read-outs that look alike come from different tables or passages of the source. Bounds are passed on as bounds.

In experiment [1] the test system is HCT116 isogenic IDH1-R132C mutant cells. Description: Cellular 2-HG assay using HCT116 mutant IDH1 cells (R132C). Type of experiment: cell-based. The conditions noted are these: Homo sapiens, HCT-116; cellular 2-HG inhibition, 24 hours, RapidFire mass spectrometry; read-out: HCT IDH1 R132C Range IC50. The method, then: (§1) HCT116 isogenic IDH1-R132H and IDH1-R132C mutant cells were cultured in growth media (McCoy's 5 A, 10% fetal bovine serum, 1× antibiotic-antimycotic solution and 0.3 mg/mL G418) in 5% CO2 in an incubator at 37° C. To prepare the assay, cells were trypsinized and resuspended in assay media (McCoy's 5 A with no L-glutamine, 10% fetal bovine serum, 1× antibiotic-antimycotic solution and 0.3 mg/mL G418). An aliquot of 10,000 cells/100 μL was transferred to each well of a clear 96-well tissue culture plate. The cells were incubated in 5% CO2 at 37° C. in an incubator overnight to allow for proper cell attachment. An aliquot of 50 μL of compound containing assay media were then added to each well and the assay plate was kept in 5% CO2 at 37° C. in an incubator for 24 hours. The media was then removed from each well and 150 μL of a methanol/water mixture (80/20 v/v) was added to each well. The plates were kept at −80° C. freezer overnight to allow for complete cell lysis. An aliquot of 125 μL of extracted supernatant was analyzed by RapidFire high-throughout-mass spectrometry (Agilent) to determine the cellular 2-HG level. The IC50 of a given compound was calculated by fitting the dose response curve of cellular 2-HG inhibition at a given concentration with the four parameter logistic equation

Experiment [2] has as its system HCT116 isogenic IDH1-R132H mutant cells. Put plainly: Cellular 2-HG assay using HCT116 mutant IDH1 cells (R132H). Type of experiment: cell-based. The conditions noted are these: Homo sapiens, HCT-116; cellular 2-HG inhibition, 24 hours, RapidFire mass spectrometry; read-out: HCT IDH1 R132H Range IC50. As to the method:
as §1

Experiment [3] has as its target IDH1-R132H recombinant protein (Homo sapiens (Human), UniProt O75874, R132H). Description: IDH1-R132H enzymatic assay. It is filed as biochemical. As to the method:
(§2) Assays were performed in a 384-well black plate. […] After the plate was centrifuged briefly, an aliquot of 10 μL of 2 mM α-ketoglutarate and 20 μM NADPH solution prepared in assay buffer was then added to each well and the reaction was maintained at 25° C. for 45 minutes. An aliquot of 10 μL of diaphorase solution (0.15 U/mL diaphorase and 30 μM Resazurin in assay buffer) was added to each well. […] The IC50 of a given compound was calculated by fitting the dose response curve of inhibition of NADPH consumption at a given concentration with the four parameter logistic equation.

Experiment [4] deals with IDH1-R132C recombinant protein (Homo sapiens (Human), UniProt O75874, R132C). Put plainly: IDH1-R132C enzymatic assay. Type of experiment: biochemical. As to the method:
as §2

Where [5] appears, read: inhibition of NADPH consumption, diaphorase/resazurin readout, read-out: Enzyme IDH1 R132H Range IC50.
The mark [6] stands for this setting: inhibition of NADPH consumption, diaphorase/resazurin readout, read-out: Enzyme IDH1 R132C Range IC50.

Sequence of IDH1-R132C recombinant protein (O75874 whole entry R132C): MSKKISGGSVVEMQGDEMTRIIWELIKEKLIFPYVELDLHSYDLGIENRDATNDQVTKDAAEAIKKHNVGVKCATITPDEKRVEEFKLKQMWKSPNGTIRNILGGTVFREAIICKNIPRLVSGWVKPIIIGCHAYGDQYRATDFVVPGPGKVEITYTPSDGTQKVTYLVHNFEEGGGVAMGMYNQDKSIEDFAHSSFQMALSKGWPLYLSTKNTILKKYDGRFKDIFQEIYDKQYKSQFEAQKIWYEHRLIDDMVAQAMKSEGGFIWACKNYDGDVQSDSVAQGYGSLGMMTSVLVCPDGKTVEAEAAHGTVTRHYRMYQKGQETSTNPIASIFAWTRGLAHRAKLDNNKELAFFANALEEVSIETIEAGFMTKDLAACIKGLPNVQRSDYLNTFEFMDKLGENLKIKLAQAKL
Sequence of IDH1-R132H recombinant protein (O75874 whole entry R132H): as the sequence (O75874 whole entry R132C) above, with C132H counted along it

For `COc1cc(N[C@@H](C)c2cc3cc(Cl)ccc3[nH]c2=O)ncc1C#N` [Compound I-1, 6-{[(1S)-1-(6-chloro-2-oxo-1,2-dihydroquinolin-3-yl)ethyl]amino}-4-methoxypyridine-3-carbonitrile], the IC50 in experiment [1] lay within 100 to 1000 nM.

Take `Cc1nc(N[C@@H](C)c2cc3cc(Cl)ccc3[nH]c2=O)ccc1C#N` [Compound I-4, (S)-6-(1-(6-chloro-2-oxo-1,2-dihydroquinolin-3-yl)ethylamino)-2-methyl nicotinonitrile]: the IC50 in experiment [2] is 100 to 1000 nM; in experiment [3] (setting [5]) it was below 100 nM; in experiment [4] (setting [6]) it was 100 to 1000 nM; in experiment [1], 100 to 1000 nM.

For the compound `Cc1cc(N[C@@H](C)c2cc3cc(Cl)ccc3[nH]c2=O)ncc1C#N` [Compound I-5, (S)-6-((1-(6-chloro-2-oxo-1,2-dihydroquinolin-3-yl)ethyl)amino)-4-methyl nicotinonitrile], the IC50 is 100 to 1000 nM in experiment [2], below 100 nM in experiment [3] (setting [5]), 100 to 1000 nM in experiment [4] (setting [6]) and 100 to 1000 nM in experiment [1].

As for `COc1nc(N[C@@H](C)c2cc3cc(Cl)ccc3[nH]c2=O)ccc1C#N` [Compound I-6, 6-{[(1S)-1-(6-chloro-2-oxo-1,2-dihydroquinolin-3-yl)ethyl]amino}-2-methoxypyridine-3-carbonitrile], the IC50 in experiment [2] is 100 to 1000 nM; in experiment [3] (setting [5]) it was below 100 nM; in experiment [4] (setting [6]), 100 to 1000 nM; in experiment [1], 10 to 100 nM.

In the case of `COc1nc(C#N)ccc1N[C@@H](C)c1cc2cc(Cl)ccc2[nH]c1=O` [Compound I-7, 5-{[(1S)-1-(6-chloro-2-oxo-1,2-dihydroquinolin-3-yl)ethyl]amino}-6-methoxypyridine-2-carbonitrile], the IC50 was 100 to 1000 nM in experiment [2], below 100 nM in experiment [3] (setting [5]), 1000 to 10000 nM in experiment [4] (setting [6]) and 100 to 1000 nM in experiment [1].

Take `Cc1nc(NC(C)c2cc3cc(Cl)ccc3[nH]c2=O)ccc1C#N` (centres unmarked) [Compound I-9, 6-{[1-(6-chloro-2-oxo-1,2-dihydroquinolin-3-yl)ethyl]amino}-2-methylpyridine-3-carbonitrile]: the IC50 in experiment [2] was 100 to 1000 nM; in experiment [3] (setting [5]) it was 100 to 1000 nM; in experiment [4] (setting [6]), 100 to 1000 nM; in experiment [1], above 1000 nM.

As to `C[C@H](Nc1cccc(N2CCOC2=O)n1)c1cc2cc(Cl)ccc2[nH]c1=O` [Compound I-11, 6-chloro-3-[(1S)-1-{[6-(2-oxo-1,3-oxazolidin-3-yl)pyridin-2-yl]amino}ethyl]-1,2-dihydroquinolin-2-one], the IC50 in experiment [1] lay within 100 to 1000 nM.

Turning to `C[C@H](Nc1nccc(N2CCOC2=O)c1F)c1cc2cc(Cl)ccc2[nH]c1=O` [Compound I-14, 6-chloro-3-[(1S)-1-{[3-fluoro-4-(2-oxo-1,3-oxazolidin-3-yl)pyridin-2-yl]amino}ethyl]-1,2-dihydroquinolin-2-one], the IC50 was 100 to 1000 nM in experiment [2], below 100 nM in experiment [3] (setting [5]), 100 to 1000 nM in experiment [4] (setting [6]) and 100 to 1000 nM in experiment [1].

Take `Cc1nc(NC(C)c2cc3cc(Cl)c(F)cc3[nH]c2=O)ccc1C#N` (centres unmarked) [Compound I-21, 6-{[1-(6-chloro-7-fluoro-2-oxo-1,2-dihydroquinolin-3-yl)ethyl]amino}-2-methylpyridine-3-carbonitrile]: the 50% inhibitory concentration (IC50) in experiment [2] is 100 to 1000 nM; in experiment [3] (setting [5]), below 100 nM; in experiment [4] (setting [6]), 100 to 1000 nM; in experiment [1], 100 to 1000 nM.

As for `Cc1nc(N[C@@H](C)c2cc3cc(Cl)c(F)cc3[nH]c2=O)ccc1C#N` [Compound I-22, 6-{[(1S)-1-(6-chloro-7-fluoro-2-oxo-1,2-dihydroquinolin-3-yl)ethyl]amino}-2-methylpyridine-3-carbonitrile], the IC50 was below 10 nM in experiment [2], below 100 nM in experiment [3] (setting [5]), 100 to 1000 nM in experiment [4] (setting [6]) and 100 to 1000 nM in experiment [1].

Consider `COc1cc2[nH]c(=O)c([C@H](C)Nc3ccc(C#N)c(C)n3)cc2cc1Cl` [Compound I-23, 6-{[(1S)-1-(6-chloro-7-methoxy-2-oxo-1,2-dihydroquinolin-3-yl)ethyl]amino}-2-methylpyridine-3-carbonitrile], for which, in experiment [1], the 50% inhibitory concentration (IC50) fell in the range of 10 to 100 nM.

Regarding `COc1cc2[nH]c(=O)c(C(C)Nc3ccc(C#N)c(C)n3)cc2cc1Cl` (centres unmarked) [Compound I-24, 6-{[1-(6-chloro-7-methoxy-2-oxo-1,2-dihydroquinolin-3-yl)ethyl]amino}-2-methylpyridine-3-carbonitrile], in experiment [1], the IC50 lay within 100 to 1000 nM.

Take `COc1cc2[nH]c(=O)c([C@H](C)Nc3cc(OC)c(C#N)cn3)cc2cc1Cl` [Compound I-25, 6-{[(1S)-1-(6-chloro-7-methoxy-2-oxo-1,2-dihydroquinolin-3-yl)ethyl]amino}-4-methoxypyridine-3-carbonitrile]: the IC50 in experiment [2] was 10 to 100 nM; in experiment [3] it was below 100 nM; in experiment [4], below 100 nM; in experiment [1], 100 to 1000 nM.

On to `COc1cc2[nH]c(=O)c([C@H](C)Nc3ccc(C#N)c(OC)n3)cc2cc1Cl` [Compound I-26, 6-{[(1S)-1-(6-chloro-7-methoxy-2-oxo-1,2-dihydroquinolin-3-yl)ethyl]amino}-2-methoxypyridine-3-carbonitrile], for which the IC50 is below 10 nM in experiment [2], below 100 nM in experiment [3] (setting [5]), below 100 nM in experiment [4] (setting [6]) and 10 to 100 nM in experiment [1].

As to `COc1cc2[nH]c(=O)c([C@H](C)Nc3cc(C)c(C#N)cn3)cc2cc1Cl` [Compound I-27, 6-{[(1S)-1-(6-chloro-7-methoxy-2-oxo-1,2-dihydroquinolin-3-yl)ethyl]amino}-4-methylpyridine-3-carbonitrile], the IC50 was 10 to 100 nM in experiment [2], below 100 nM in experiment [3] (setting [5]), below 100 nM in experiment [4] (setting [6]) and 100 to 1000 nM in experiment [1].

As to `Cc1nc(N[C@@H](C)c2cc3cc(Cl)c(OCc4ccccn4)cc3[nH]c2=O)ccc1C#N` [Compound I-28, 6-{[(1S)-1-[6-chloro-2-oxo-7-(pyridin-2-ylmethoxy)-1,2-dihydroquinolin-3-yl]ethyl]amino}-2-methylpyridine-3-carbonitrile], the IC50 is 10 to 100 nM in experiment [2], below 100 nM in experiment [3] (setting [5]), below 100 nM in experiment [4] (setting [6]) and below 10 nM in experiment [1].

Take `Cc1nc(NC(C)c2cc3cc(Cl)c(OCc4ccccn4)cc3[nH]c2=O)ccc1C#N` (centres unmarked) [Compound I-29, 6-({1-[6-chloro-2-oxo-7-(pyridin-2-ylmethoxy)-1,2-dihydroquinolin-3-yl]ethyl}amino)-2-methylpyridine-3-carbonitrile]: the IC50 in experiment [2] was 10 to 100 nM; in experiment [3] (setting [5]), below 100 nM; in experiment [1], 10 to 100 nM.

For the compound `Cc1nc(NC(C)c2cc3cc(Cl)c(OCC4CC(F)(F)C4)cc3[nH]c2=O)ccc1C#N` (centres unmarked) [Compound I-30, 6-[(1-{6-chloro-7-[(3,3-difluorocyclobutyl)methoxy]-2-oxo-1,2-dihydroquinolin-3-yl}ethyl)amino]-2-methylpyridine-3-carbonitrile], the IC50 is 10 to 100 nM in experiment [2], below 100 nM in experiment [3] (setting [5]), 100 to 1000 nM in experiment [4] (setting [6]) and 10 to 100 nM in experiment [1].

`Cc1c(-c2ccnc(N[C@@H](C)c3cc4cc(Cl)ccc4[nH]c3=O)c2)cnn1C` [Compound I-40, 6-chloro-3-[(1S)-1-{[4-(1,5-dimethyl-1H-pyrazol-4-yl)pyridin-2-yl]amino}ethyl]-1,2-dihydroquinolin-2-one]: the IC50 in experiment [2], in experiment [3] (setting [5]), in experiment [4] (setting [6]) and in experiment [1] was 100 to 1000 nM in each case.

With `Cc1nc(NCc2cc3cc(Cl)ccc3[nH]c2=O)ccc1C#N` [Compound I-58, 6-{[(6-chloro-2-oxo-1,2-dihydroquinolin-3-yl)methyl]amino}-2-methylpyridine-3-carbonitrile], the IC50 was 100 to 1000 nM in experiment [2], below 100 nM in experiment [3] (setting [5]), 100 to 1000 nM in experiment [4] (setting [6]) and above 1000 nM in experiment [1].

Take `COc1cc2[nH]c(=O)c(CNc3ccc(C#N)c(C)n3)cc2cc1Cl` [Compound I-83, 6-{[(6-chloro-7-methoxy-2-oxo-1,2-dihydroquinolin-3-yl)methyl]amino}-2-methylpyridine-3-carbonitrile]: the IC50 in experiment [2] is above 1000 nM; in experiment [3] (setting [5]), below 100 nM; in experiment [4] (setting [6]) it was above 10000 nM; in experiment [1], above 1000 nM.
